Patent US12065468B2, “Heme-binding small peptide” (priority 2021, dated 2024)

Experiments:
[1] = literature; read-out: KD for heme; cited from earlier work
[2] = Biolayer interferometry of heme binding; details: compared with NCR247 (L-enantiomer)
Description: Biotinylation of heme: Hemin was biotinylated using the method exactly as described previouslyl^16. Biotin hydrazide, DCC was purchased from Sigma. COSMOSIL™ 5C18-AR-II Packed Column, 4.6 mm I.D.×150 mm from Nacalai USA (San Diego, CA) was used to separate the products. LC-MS was used to verify the correct molecular weight (969.4 Da) of biotinylated heme (in which only one of the two propionate groups of protoheme was conjugated with biotin hydrazide) as described above.
Biolayer interferometry: Biolayer interferometry was carried out using a ForteBio Octet RED96™ biolayer interferometer, following the manufacturer's instructions for a standard kinetic assay. Streptavidin-coated biosensor tips were incubated in 200 μl assay buffer (Water [pH 7.4]), each for 60s. Then biotinylated heme (or NCR247 in the case of Fe(III) PPIX dimethyl ester chloride) was loaded onto each biosensor tip at the defined concentration until the binding signal reached a value of >1.4. Biosensor tip loading was followed by incubation in assay buffer for 60s. Association between the ligand-heme and the analyte-various variants of NCR247 (Increasing concentrations in assay buffer) was observed over a time frame of ˜116 s, in assay buffer. To stop binding kinetics for dissociation, the biosensor tips were placed back into assay buffer not containing any analyte, for 120 s. Curves were fit with Global fit analysis and Data analysis and KD calculation was performed using Fortebio™ data analyses 8.2 software as described previously^89.

Sinorhizobium meliloti [3] = experiment: S. meliloti cell death in 24 hours (plating); assay type: cell-based
Sinorhizobium meliloti [4] = experiment: S. meliloti growth curve; assay type: cell-based; details: increasing amounts of peptide; minimal medium
Procedure: Growth curve: All growth curve experiments were performed in a Tecan SPARK 10M microplate reader using polystyrene flat bottomed, non-treated, sterile 96 well plates. Overnight cultures grown in LBMC were washed and were subcultured (1:100 dilution) in minimal medium supplemented with respective iron concentrations. The plates were programed to continuously shake at 150 rpm and temperature maintained at 30° C. Optical density was measured at 600 nm every 60 minutes.

[5] = UV-Vis spectroscopy / colour change on heme addition; assay type: binding; details: heme added to peptide, ferric heme
Procedure: Heme preparation: Hemin solutions were always prepared in 0.1 M NaOH and used within 30 min of preparation. 1:1000 and 1:500 dilution of the stock solution was made and stock concentration was measured by pyridine hemochrome assay as described previously^85 by measuring the absorption at 557 nm using the extinction coefficient of pyridine hemochromogen (34.7 mM^−1 cm^−1).
UV-VIS spectroscopy: All absorption spectra were collected in a Tecan Spark™ 10 M microplate reader using black polystyrene 96-well plates. Absorbance from 300 nm to 700 nm was recorded with a 5 nm interval after an initial shaking at 100 rpm for 15 secs. Heme binding to synthesized peptide: Water (pH 7.4) was used in all reactions and was first added to the wells. Peptides solubilized in water were added and then heme solubilized in 0.1 M NaOH was added, mixed thoroughly and measurements were taken immediately. Peptide and heme volume were kept to a maximum of 5 ul in volume. For all the absorption curves (except Extended FIG. 3a) […] was used. The same was also repeated with 0.1 M Tris buffer (pH 7.4) as a base buffer instead of water.

hemoglobin
Kd [1]: 10 nM

RNGCIVDARCPYQKCSYPLYCRRR [M. sativa (alfalfa) NCR247 ortholog, NCR247 ortholog of M. sativa with a 4-amino acid change]
heme binding affinity, in words [2]: binds heme with the same affinity

haempexin: heme scavenger
Kd [1]: < 1000 nM

Aβ (1-42) peptide: human Aβ amyloid peptide derived from cleavage of the amyloid precursor protein
Kd [1]: 140 nM

RNGCIVDPRCPYQQCRRPLYCAAA [NCR247 (RRR to AAA mutant)]
Cell death in 24 hours (Sinorhizobium meliloti [3]; 6 uM peptide): No cell death observed
reduction in number of S. meliloti cells (bactericidal effect) (Sinorhizobium meliloti [3]; incubated 24 hours, plated in non-selective medium): causes no reduction in number of S. meliloti cells
inhibition of growth of S. meliloti (bacteriostatic effect) (Sinorhizobium meliloti [4]): does not inhibit the growth of Sinorhizobium meliloti
heme binding (absorption peaks 366 nm, ~450 nm; colour change) [5]: binds heme
